Data published in patent publication US11008361B2, “Liver-specific delivery-based anti-hepatitis C prodrug nucleoside cyclo-phosphate compound and uses thereof” (priority 2017, dated 2021).

Legend:
[1] = Compound tissue distribution experiment in rats (metabolites 2FM-UR, 2FM-UMP, 2FM-UTP by LC-MS/MS); type: in vivo, Sprague Dawley rats; details: rat; for 2FM-UTP released in liver versus corresponding time points of sofosbuvir: 30 mg/Kg oral, p<0.01, FIG. 2; for 2FM-UMP released in the heart versus sofosbuvir: p<0.01, FIGS. 3A-3B; for Active molecule 2FM-UTP in the blood and heart: lower limit of quantitation 5 ng/mL or 5 ng/g
Protocol: Sprague Dawley rats, male, weighing 180-300 g, were provided by Shanghai Xipuer-Beikai Experimental Animal Co., Ltd. Male animals were allowed to adapt to the environment for more than 3 days, and fasted for 12 hours before the experiment, but were free to drink water. PA2020, PA2024, PA2029 and sofosbuvir were respectively dissolved in a mixed solvent of Cremophor EL, ethanol and normal saline at a volume ratio of 10:10:80 to prepare corresponding solutions. Before the administration, the animals' weight was checked to determine whether the rats met the experimental requirements. Twelve rats were selected for grouping, 2 rats in each group, and 30 mg/kg of a drug solution was administered intragastrically to the rats. Samples were respectively collected at 0.5 h, 1 h, 3 h, 6 h, 12 h and 24 h after the administration. After the rats were euthanized with carbon dioxide, the blood was collected from the heart and stored in heparin anticoagulation tubes. The blood was centrifuged at 6,000 rpm and 4° C. for 5 min, and the supernatant plasma was taken and stored in dry ice. The kidney, liver and heart of the rats were collected and rinsed with normal saline pre-cooled at 4° C. and stored in dry ice after the water was drained. After the experiment, the samples were stored in a −80° C. refrigerator.
Due to the difference in polarity, 2FM-UR, 2FM-UMP and 2FM-UTP were separated and detected using different methods, so that the used LC-triple quadrupole mass spectrometry detectors, the pretreatment conditions, chromatographic and mass spectrometric conditions varied among these compounds.
In the ice bath, 50 μL of plasma was first mixed with 50 μL of internal standard solution (10% trichloroacetic acid solution of tenofovir at 500 ng/mL). After centrifugation at 13,000 rpm and 4° C. for 10 min, 20 μL of the supernatant was mixed with 180 μL of water, and 5 μL of the resulting solution was injected and analyzed by LC-MS/MS.
The kidney, liver and heart tissue were mixed with a buffer in a volume ratio of 1:5 and fully disrupted in the ice bath. 20 μL of the tissue homogenate was mixed with 20 μL of the internal standard solution (500 ng/mL of tenofovir in 10% trichloroacetic acid solution). After centrifugation at 13,000 rpm for 10 min at 4° C., 20 μL of the supernatant was mixed with 180 μL of water, and 5 μL of the resulting solution was injected and analyzed by LC-MS/MS.
LC-MS/MS-AJ (Triple Quad 5500, AB SCIEX) was used for sample analysis. Column: Acquity UPLC HSS T3 (2.1×50 mm, […]); column temperature: 40° C.; flow rate: 0.5 mL/min. Mobile phase A: 0.1% aqueous formic acid, mobile phase B: acetonitrile solution. Mass spectrometry conditions corresponding to the internal standard: electrospray ionization (ESI) positive ion mode, multiple reaction monitoring (MRM) monitoring ion pair m/z: 288/176 (tenofovir), 261/113 (2FM-UR); the temperature was 500° C.; the scanning time was 0.03 s; the collision energy was 15V.
In the ice bath, 30 μL of plasma was first mixed with 30 μL of internal standard solution (5% trichloroacetic acid solution of 100 ng/mL tolbutamide). After centrifugation at 13,000 rpm for 10 min at 4° C., 40 μL of the supernatant was mixed with 80 μL of water, and 5 μL of the injection was analyzed.
Kidney, liver, heart tissue: in the ice bath, tissue and 5 volumes of homogenization buffer of organ tissues (1.75 mL of methanol, 5 μL of 50% KOH solution and 0.75 mL of 268 mM EDTA solution, pH=8) were fully disrupted and mixed. 60 μL of tissue homogenate was mixed with 60 μl of internal standard solution (5% trichloroacetic acid solution of 100 ng/mL tolbutamide). After centrifugation at 13,000 rpm for 10 minutes at 4° C., 40 μL of the supernatant was mixed with 80 μL of water, and 5 μL of the injection was analyzed.
LC-MS/MS-AJ (Triple Quad 5500, AB SCIEX) was used for sample analysis. Column: ACE 3 AQ (2.1×50 mm); column temperature: 55° C.; flow rate: 0.45 mL/min. […]

[2] = tested on: human liver microsome (HLM); assay: Human liver microsomal metabolism in vitro (release of 2FM-UMP); type: in vitro ADME; details: formation of 2FM-UMP, versus other candidate compounds of Table 3
Text: The human liver microsome (HLM) used in this test was purchased from In Vitro Technologies (IVT) with a batch number of SSP X008070, which was a mixed liver microsome extracted from the liver tissues of 150 donors. The product description recorded that the metabolic activity of CYP3A4 in this batch of the human liver microsomes was 1.734 nmol/mg/min (the rate at which testosterone is metabolized to produce 6-β testosterone). The test compound was synthesized by Zhejiang Plato Pharmaceutical Technology Co., Ltd., and dissolved in methanol to prepare a storage solution having a concentration of 25 mM. The enzymatic reaction was carried out in a 100 mM KH2PO4 buffer solution (pH 7.4) at a test compound concentration of 25 μM and a human liver microsome concentration of 2 mg/ml. The reaction was initiated by the addition of NADPH (final concentration 2 mM). After reacting for 5 min in a constant temperature shaking water bath, the reaction was terminated by the rapid addition of methanol at a volume of 1.5 times that of the reaction mixture. The reaction solution was centrifuged at a maximum speed of 13,600 rpm using an Eppendorf bench top centrifuge for 20 min, and the supernatant was taken. And then the supernatant was dried by a nitrogen blower and redissolved in mobile phase A (aqueous solution containing 5 mM ammonium acetate and 0.05% formic acid v/v). The resulting sample was analyzed by LC-MS/MS (Waters, Acquity UPLC HSS T3 column).

rat hepatocytes = details: lamivudine triphosphate used as a reference; cited from earlier work
[3] = 30 mg/kg intragastric, within 24 h
[4] = 30 mg/kg intragastric, within 24 h, plasma
[5] = same dose (30 mg/kg), plasma, relative to sofosbuvir

SMILES | 2FM-UTP released in liver versus corresponding time points of sofosbuvir [1] | Exposure amount of 2FM-UMP in liver (AUC0-t) [1, 3] [ng·h/g] | Exposure amount of 2FM-UTP in liver (AUC0-t) [1, 3] [ng·h/g] | Exposure amount of 2FM-UMP in plasma (AUC0-t) [1, 4] [ng·h/g] | 2FM-UMP released in the heart versus sofosbuvir ([1]; 30 mg/kg, heart) | 2FM-UR released in the heart versus equivalent dose of sofosbuvir ([1]; 30 mg/kg, heart, p<0.01, FIGS. 4A-4B) | Active molecule 2FM-UTP in the blood and heart ([1]; 30 mg/kg) | 2FM-UMP concentration in plasma as fraction of sofosbuvir [1, 5] | 2FM-UR concentration in plasma relative to sofosbuvir [1, 5] | Transformation rate relative to other candidate compounds [2] | Exposure amount of 2FM-UMP in heart (AUC0-t) ([1]; 30 mg/kg intragastric, within 24 h, heart, N.D. = below 5 ng/g or 5 ng/mL) [ng·h/g] | Corresponding active triphosphate compound produced in rat hepatocytes (rat hepatocytes) [nmol/g]
C[C@@]1(F)[C@H](O)[C@@H](COP2(=O)OCC[C@H](c3cc(Cl)ccc3F)O2)O[C@H]1n1ccc(=O)[nH]c1=O (stereo partly drawn) [PA2029] | significantly higher | 110339 | 11820 | 1451 | less | less | could not be detected | ¼ | approximately half | almost more than twice |  | 
C[C@@]1(F)[C@H](O)[C@@H](COP2(=O)OCC[C@H](c3cc(F)cc(Cl)c3)O2)O[C@H]1n1ccc(=O)[nH]c1=O (stereo partly drawn) [PA2020] | significantly higher | 102822 | 26682 | 439 | less |  | could not be detected |  |  | almost more than twice |  | 
CC(C)OC(=O)[C@H](C)N[P@](=O)(OC[C@H]1O[C@@H](n2ccc(=O)[nH]c2=O)[C@](C)(F)[C@@H]1O)Oc1ccccc1 [SFB, sofosbuvir, reference compound] |  | 27128 | 2691 | 5680 |  |  | could not be detected |  |  |  | 417 | 
CCC(=O)O[C@@H]1[C@@H](COP2(=O)OCC[C@H](c3cccc(Cl)c3)O2)O[C@@H](n2ccc(=O)[nH]c2=O)[C@]1(C)F (stereo partly drawn) |  |  |  |  |  |  |  |  |  |  |  | 87.8
C[C@@]1(F)[C@H](O)[C@@H](COP2(=O)OCC[C@H](c3cc(Cl)cc(Cl)c3)O2)O[C@H]1n1ccc(=O)[nH]c1=O (stereo partly drawn) [PA2024] | significantly higher | 65242 | 9591 | 105 | less |  | could not be detected |  |  | almost more than twice |  | 
